Laboratory results reported in patent US6967196B1, “Sulfonamide compounds and uses thereof” (Bristol-Myers Squibb Company, priority 1999, dated 2005).
Where a name gives a salt, the structure may show the parent alone. Read-outs that look alike come from different tables or passages of the source. Each block holds one molecule with its values, some of them ahead of it.

System: amyloid β production in transfected H4 (human neuroglioma) cells stably expressing APP constructs
Assay: In vitro cell-based assay of inhibitors of amyloid β production (ELISA)
Conditions: amyloid β in medium by ELISA
In short: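 Aβ secreted into the medium was read by sandwich ELISA (monoclonal capture for the Aβ C-terminus, polyclonal detection for the N-terminus) and calibrated on a standard curve. Before this, APP-expressing H4 cells were exposed to compound for ~16 h at an initial 10-100 μM, with actives then retested in dose-response.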

[1] = transfected H4 cells stably expressing APP constructs, approximately 16 hours incubation, read-out: ACTIVITY (IC50, inhibition of amyloid β production)
[2] = Homo sapiens, 16 h, transfected H4 cells stably expressing APP constructs, approximately 16 hours incubation, read-out: ACTIVITY (IC50, inhibition of amyloid β production)
[3] = transfected H4 cells stably expressing APP, approximately 16 hours incubation, read-out: ACTIVITY (IC50, inhibition of amyloid β production)
[4] = transfected H4 cells stably expressing APP, approx. 16 h incubation, read-out: ACTIVITY (IC50, inhibition of amyloid β production)
[5] = Homo sapiens, 16 h, transfected H4 cells stably expressing APP, approximately 16 hours incubation, Table B, read-out: ACTIVITY (IC50, inhibition of amyloid β production)

Molecule: C[C@H](CCN1CCCC(CS(C)(=O)=O)C1)N(c1cc(Cl)ccc1Cl)S(=O)(=O)c1ccc(Cl)cc1 (stereo partly drawn) [Example 1151, 4-chloro-N-(2,5-dichlorophenyl)-N-[3-[(3-(methylsulfonyl)methyl]-1-piperidinyl]-1(R)-methylpropyl)benzenesulfonamide]
IC50 [1]: 100 to 500 nM

IC50 [2]: ≤ 25 nM
Molecule: C[C@H](CCCS(=O)(=O)N(C)C)N(c1cc(Cl)ccc1F)S(=O)(=O)c1ccc(Cl)cc1 [Example 1202, 4-chloro-N-(5-chloro-2-fluorophenyl)-N-[4-[(dimethylamino)sulfonyl]-1(R)-methylbutyl]benzenesulfonamide]

Molecule: CSC1CCN(CCC[C@@H](C)N(c2cc(Cl)ccc2Cl)S(=O)(=O)c2ccc(Cl)cc2)C1 (stereo partly drawn) [Example 1144, 4-chloro-N-(2,5-dichlorophenyl)-N-[4-[(4-methylthio)-1-pyrrolidinyl]-1(R)-methylbutyl]benzenesulfonamide]
IC50 [1]: 100 to 500 nM

IC50 (Homo sapiens, 16 h, transfected H4 cells expressing APP, approximately 16 hours incubation, read-out: ACTIVITY (IC50, inhibition of amyloid β production)): 100 to 500 nM
Molecule: CCCCNC(=O)[C@@H](C)N(c1cc(Cl)ccc1F)S(=O)(=O)c1ccc(Cl)cc1 [Example 1299]

IC50 [3]: > 500 nM
Molecule: 4-chloro-N-{3-[2-(1-{[(4-chlorophenyl)sulfonyl]-2,5-difluoroanilino}ethyl)phenoxy]propyl}-2-nitrobenzamide [Example 947]

IC50 [2]: 25 to 50 nM
Molecule: COC(=O)C1SCCN1CC[C@@H](C)N(c1cc(Cl)ccc1Cl)S(=O)(=O)c1ccc(Cl)cc1 (stereo partly drawn) [Example 1119, 4-chloro-N-(2,5-dichlorophenyl)-N-[3-(2-methoxycarbonyl-3-thiazolidinyl)-1(R)-methylpropyl]benzenesulfonamide]

IC50 [4]: 100 to 500 nM
Molecule: CC(c1ccccc1OCCCN(C)C(=O)c1ccccc1I)N(c1cc(F)ccc1F)S(=O)(=O)c1ccc(Cl)cc1 (stereo not drawn) [Example 637]

Molecule: CC(C)Oc1c(NCCC[C@@H](C)N(c2cc(F)ccc2F)S(=O)(=O)c2ccc(Cl)cc2)c(=O)c1=O [Example 1120, 4-chloro-N-(2,5-difluorophenyl)-N-[4-(2-isopropoxy-3,4-dioxo-1-cyclobutenyl)amine-1(R)-methylbutyl]benzenesulfonamide]
IC50 [1]: 25 to 50 nM

IC50 (Table B, transfected H4 cells stably expressing APP, approximately 16 hours incubation, read-out: ACTIVITY (inhibitory concentration IC50, inhibition of amyloid β production)): ≤ 25 nM
Molecule: Nc1cc(Cl)ccc1COC1CCCCO1 (stereo not drawn) [Example 3, 5-Chloro-2-[[(tetrahydro-2H-pyran-2-yl)oxy]methyl]benzenamine]

IC50 [5]: 50 to 100 nM
Molecule: C[C@H](c1ccc(F)cc1CCOC(=O)NCc1ccc(F)cc1)N(c1cc(F)ccc1F)S(=O)(=O)c1ccc(Cl)cc1 [Example 419, 2-[2-((1R)-1-{[(4-chlorophenyl)sulfonyl]-2,5-difluoroanilino}ethyl)-5-fluorophenyl]ethyl 4-fluorobenzylcarbamate]

Molecule: C[C@H](CCCS(C)(=O)=O)N(c1cc(F)ccc1F)S(=O)(=O)c1ccc(Cl)cc1 [Example 1170, 4-chloro-N-[2,5-difluorophenyl]-N-[1(R)-methyl-(4-methylsulfonyl)butyl]benzenesulfonamide]
IC50 [1]: ≤ 25 nM

IC50 [4]: 100 to 500 nM
Molecule: N-{3-[2-(1-{[(4-chlorophenyl)sulfonyl]-2,5-difluoroanilino}ethyl)phenoxy]ethyl}-N-methyl-2-(trifluoromethyl)benzamide [Example 697]

IC50 (Homo sapiens, 16 h, transfected H4 cells stably expressing APP, approximately 16 hours incubation, read-out: ACTIVITY (IC50, inhibition of amyloid β production)): > 500 nM
Molecule: CC(COc1ccccc1CN(c1ccccc1)S(=O)(=O)c1ccc(Cl)cc1)N1CCC1 (stereo not drawn) [Example 918, N-{2-[2-(1-azetidinyl)propoxy]benzyl}-4-chloro-N-phenylbenzenesulfonamide hydrochloride]

IC50 [1]: 50 to 100 nM
Molecule: COC(=O)C[S+]([O-])CC[C@@H](C)N(c1cc(Cl)ccc1Cl)S(=O)(=O)c1ccc(Cl)cc1 (stereo partly drawn) [Example 1187, methyl(6R)-6-[(2,5-dichlorophenyl)-[(4-chlorophenyl)sulfonyl]-amino]-3-thioheptanoic acid, 3-oxide]

IC50 [3]: 100 to 500 nM
Molecule: N-{3-[2-(1-{[(4-chlorophenyl)sulfonyl]-2,5-difluoroanilino}ethyl)phenoxy]propyl}-2,3,4,5 tetrafluorobenzamide [Example 863]

IC50 [3]: > 500 nM
Molecule: COC(=O)[C@H](c1ccccc1)N(c1cc(F)ccc1F)S(=O)(=O)c1ccc(Cl)cc1 [Example 987, methyl (2S)-1-{[(4-chlorophenyl)sulfonyl]-2,5-difluoroanilino}(phenyl)ethanoate]

IC50 [2]: ≤ 25 nM
Molecule: CCCC(c1cc(F)ccc1[C@@H](C)N(c1cc(F)ccc1F)S(=O)(=O)c1ccc(Cl)cc1)N1CCS(=O)(=O)C(C)C1 (stereo partly drawn) [Example 1278, (R)-4-Chloro-N-(2,5-difluorophenyl)-N-[1-[4-fluoro-2-[1-(1,1-dioxo-2-methyl-4-thiomorpholinyl)butyl]phenyl]ethyl]benzenesulfonamide]

IC50 [5]: 50 to 100 nM
Molecule: C[C@H](c1ccc(F)cc1COCc1cccnc1)N(c1cc(F)ccc1F)S(=O)(=O)c1ccc(Cl)cc1 [Example 380, 4-chloro-N-(2,5-difluorophenyl)-N-((1R)-1-{4-fluoro-2-[(3-pyridinylmethoxy)methyl]phenyl}ethyl)benzenesulfonamide]

Molecule: CSCCC[C@@H](C)N(c1cc(Cl)ccc1CO)S(=O)(=O)c1ccc(Cl)cc1 [Example 1228, 4-chloro-N-[5-chloro-2-(hydroxymethyl)phenyl]-N-[1(R)-methyl-(4-methylthio)butyl]benzenesulfonamide]
IC50 [1]: ≤ 25 nM

IC50 (Homo sapiens, 16 h, transfected H4 cells stably expressing APP, approx. 16 h incubation, read-out: ACTIVITY (IC50, inhibition of amyloid β production)): 100 to 500 nM
Molecule: O=C(c1ccccc1)N1CCCCC1CCOc1ccccc1CN(c1cc(F)ccc1F)S(=O)(=O)c1ccc(Cl)cc1 (stereo not drawn) [Example 745, N-{2-[2-(1-benzoyl-2-piperidinyl)ethoxy]benzyl}-4-chloro-N-(2,5-difluorophenyl)benzenesulfonamide]

IC50 [3]: > 500 nM
Molecule: C[C@H](c1ccc(F)cc1CCCC(=O)O)N(c1cc(F)ccc1F)S(=O)(=O)c1ccc(Cl)cc1 [Example 1073, 4-[2-((1R)-1-{[(4-chlorophenyl)sulfonyl]-2,5-difluoroanilino}ethyl)-5-fluorophenyl]butanoic acid]

Molecule: CSC1CCN(CC[C@@H](C)N(c2cc(Cl)ccc2Cl)S(=O)(=O)c2ccc(Cl)cc2)C1 (stereo partly drawn) [Example 1147, 4-chloro-N-(2,5-dichlorophenyl)-N-[3-[(3-methylthio)-1-pyrrolidinyl]-1(R)-methylpropyl]benzenesulfonamide]
IC50 [1]: 100 to 500 nM

Molecule: CC(C)C[C@H](NC(=O)CCCC[C@@H](C)N(c1cc(Cl)ccc1F)S(=O)(=O)c1ccc(Cl)cc1)C(=O)O [Example 1263, (R)-4-Chloro-N-(5-chloro-2-fluorophenyl)-N-[6-[N-(S)-[1-(carboxy)-3-methylbutyl]amino]-1-methyl-6-oxohexyl]benzenesulfonamide]
IC50 [1]: 25 to 50 nM

Molecule: CC(C)SCCC[C@@H](C)N(c1cc(Cl)ccc1Cl)S(=O)(=O)c1ccc(Cl)cc1 [Example 1190]
IC50 [1]: 100 to 500 nM

IC50 [3]: > 500 nM
Molecule: 2-((1R)-1-{[(4-chlorophenyl)sulfonyl]-2,5-difluoroanilino}ethyl)-5-fluorobenzyl 2-(1-pyrrolidinyl)ethylcarbamate [Example 914]

IC50 [4]: 100 to 500 nM
Molecule: isobutyl 3-[2-(1-{[(4-chlorophenyl)sulfonyl]-2,5-difluoroanilino}ethyl)phenoxy]propyl(methyl)carbamate [Example 677]

IC50 [4]: 100 to 500 nM
Molecule: S-ethyl 4-[2-(1-{[(4-chlorophenyl)sulfonyl]-2,5-difluoroanilino}ethyl)phenoxy]butyl(ethyl)thiocarbamate [Example 790]

IC50 [4]: 100 to 500 nM
Molecule: 2-((1R)-1-{[(4-chlorophenyl)sulfonyl]-2,5-difluoroanilino}ethyl)benzyl 2-phenylpropylcarbamate [Example 799]

IC50 [2]: ≤ 25 nM
Molecule: CNS(=O)(=O)CCC[C@@H](C)N(c1cc(Cl)ccc1CO)S(=O)(=O)c1ccc(Cl)cc1 [Example 1233, 4-chloro-N-[5-chloro-2-(hydroxymethyl)phenyl]-N-[4-[(methylamino)sulfonyl]-1(R)-methylbutyl]benzenesulfonamide]

IC50 [4]: 100 to 500 nM
Molecule: 2,4,6-trichloro-N-{3-[2-(1-{[(4-chlorophenyl)sulfonyl]-2,5-difluoroanilino}ethyl)phenoxy]propyl}-N-methylbenzamide [Example 713]

Molecule: CC(C)[C@H](NC(=O)CCCC[C@@H](C)N(c1cc(Cl)ccc1F)S(=O)(=O)c1ccc(Cl)cc1)C(=O)O [Example 547, (R)-4-Chloro-N-(5-chloro-2-fluorophenyl)-N-[6-[N-(S)-[1-(carboxy)-2-methylpropyl]amino]-1-methyl-6-oxohexyl]benzenesulfonamide]
IC50 [4]: 100 to 500 nM

IC50 [5]: 50 to 100 nM
Molecule: C[C@H](c1ccccc1Cn1ccnc1)N(c1cc(F)ccc1F)S(=O)(=O)c1ccc(Cl)cc1 [Example 438, 4-chloro-N-(2,5-difluorophenyl)-N-{(1R)-1-[2-(1H-imidazol-1-ylmethyl)phenyl]ethyl}benzenesulfonamide hydrochloride]

IC50 [2]: ≤ 25 nM
Molecule: CNS(=O)(=O)CCC[C@@H](C)N(c1cc(F)ccc1F)S(=O)(=O)c1ccc(Cl)cc1 [Example 1207, 4-chloro-N-[2,5-difluorophenyl]-N-[4-[(methylamino)sulfonyl]-1(R)-methylbutyl]benzenesulfonamide]
